Reference: patent US11286255B2, “Pyridone carboxylic acid derivative or salt thereof” (WAKUNAGA PHARMACEUTICAL CO., LTD., priority 2017, dated 2022)

Tests used:
[1] = system: NCI-H460 (human non-small cell lung cancer cell line); experiment: In vitro cell growth inhibition test against NCI-H460; format: cell-based; details: 72 h, NCI-H460 cells, 3 days culture, WST-8 (Cell Counting Kit-8), 50% growth inhibition concentration
Method: Test Example 1: In Vitro Cell Growth Inhibition Test Against NCI-H460 (Human Non-Small Cell Lung Cancer Cell Line)
An NCI-H460 cell suspension was inoculated at 4×10^3 cells/100 μL/well (0.1 mL) to a 96-well flat-bottomed multiplate using RPMI-1640 (Sigma-Aldrich Co. LLC, R8758) medium containing 10% […] (fetal bovine serum, Thermo Fisher Scientific Inc.), and cultured at 37° C. for 1 day in an incubator containing 5% carbon dioxide. The compound of the present invention was dissolved at a concentration of 1 mM in dimethyl sulfoxide and further diluted into 5.00, 2.50, 1.25, 0.63, 0.31, 0.16, 0.078, and 0.039 μM (final concentrations) using dimethyl sulfoxide and RPMI-1640 medium. Each of these dilutions was added at 0.1 mL/well to the culture plate of the NCI-H460 cells mentioned above after removal of the medium, and the cells were cultured at 37° C. for 3 days in an incubator containing 5% carbon dioxide.
After the culture, Cell Counting Kit-8 (Dojindo Laboratories), which adopts WST-8 [2-(2-methoxy-4-nitrophenyl)-3-(4-nitrophenyl)-5-(2,4-disulfophenyl)-2H-tetrazolium monosodium salt] as a chromogenic substrate, was added at 10 μL/well, and the cells were cultured under the same conditions as above for 1 hour, followed by measurement of absorbance at 450 nm. A cell survival rate was calculated in terms of 50% growth inhibition concentration (IC50 (μM)) by the least square method with that of a control group defined as 100%.

[2] = system: relapsed/refractory acute myeloid leukemia; details: overall survival targeting all patients; cited from earlier work

SMILES	IC50 [1] [nM]	therapeutic effect in overall survival (primary endpoint) as compared with a placebo group [2]
CCOCC(COCC)NC(=O)C1CN(c2cc(C)c3c(=O)c(C(=O)O)cn(-c4nccs4)c3n2)C1 [Example 006, 7-{3-[(1,3-Diethoxypropan-2-yl)carbamoyl]azetidin-1-yl}-5-methyl-4-oxo-1-(1,3-thiazol-2-yl)-1,4-dihydro-1,8-naphthyridine-3-carboxylic acid]	110	
CC(=O)C1CN(c2cc(C)c3c(=O)c(C(=O)O)cn(-c4nccs4)c3n2)C1 [Example 020, 7-(3-Acetylazetidin-1-yl)-5-methyl-4-oxo-1-(1,3-thiazol-2-yl)-1,4-dihydro-1,8-naphthyridine-3-carboxylic acid]	340	
O=C(O)c1cn(-c2nccs2)c2nc(N3CC(C(=O)Nc4ccccn4)C3)c(F)cc2c1=O [Example 083, 6-Fluoro-4-oxo-7-{3-[(pyridin-2-yl)carbamoyl]azetidin-1-yl}-1-(1,3-thiazol-2-yl)-1,4-dihydro-1,8-naphthyridine-3-carboxylic acid]	190	
O=C(O)c1cn(-c2nccs2)c2nc(N3CC(C(=O)NCC4CCCCO4)C3)c(F)cc2c1=O (centres unmarked) [Example 173, 6-Fluoro-7-{3-[(oxan-2-ylmethyl)carbamoyl]azetidin-1-yl}-4-oxo-1-(1,3-thiazol-2-yl)-1,4-dihydro-1,8-naphthyridine-3-carboxylic acid]	260	
CCCn1nc(NC(=O)C2CN(c3nc4c(c(C)c3F)c(=O)c(C(=O)O)cn4-c3ncns3)C2)cc1C [Example 218, 6-Fluoro-5-methyl-7-{3-[(5-methyl-1-propyl-1H-pyrazol-3-yl)carbamoyl]azetidin-1-yl}-4-oxo-1-(1,2,4-thiadiazol-5-yl)-1,4-dihydro-1,8-naphthyridine-3-carboxylic acid]	260	
COCC(COC)NC(=O)C1CN(c2cc(C)c3c(=O)c(C(=O)O)cn(-c4nccs4)c3n2)C1 [Example 243, 7-{3-[(1,3-Dimethoxypropan-2-yl)carbamoyl]azetidin-1-yl}-5-methyl-4-oxo-1-(1,3-thiazol-2-yl)-1,4-dihydro-1,8-naphthyridine-3-carboxylic acid]	220	
CCOCCNC(=O)C1CN(c2cc(C)c3c(=O)c(C(=O)O)cn(-c4nc(-c5cccnc5)cs4)c3n2)C1 [Example 414, 7-{3-[(2-Ethoxyethyl)carbamoyl]azetidin-1-yl}-5-methyl-4-oxo-1-[4-(pyridin-3-yl)-1,3-thiazol-2-yl]-1,4-dihydro-1,8-naphthyridine-3-carboxylic acid]	400	
Cc1c(F)c(N2CC(n3cccn3)C2)nc2c1c(=O)c(C(=O)O)cn2-c1nccs1 [Example 487, 6-Fluoro-5-methyl-4-oxo-7-[3-(1H-pyrazol-1-yl)azetidin-1-yl]-1-(1,3-thiazol-2-yl)-1,4-dihydro-1,8-naphthyridine-3-carboxylic acid]	160	
O=C(O)c1cn(-c2ncns2)c2nc(N3CC(NOCc4ccccc4)C3)c(F)cc2c1=O [Example 549, 7-{3-[(Benzyloxy)amino]azetidin-1-yl}-6-fluoro-4-oxo-1-(1,2,4-thiadiazol-5-yl)-1,4-dihydro-1,8-naphthyridine-3-carboxylic acid]	190	
O=C(O)c1cn(-c2nccs2)c2nc(N3CC(CNc4ccccn4)C3)c(F)cc2c1=O [Example 561, 6-Fluoro-4-oxo-7-(3-{[(pyridin-2-yl)amino]methyl}azetidin-1-yl)-1-(1,3-thiazol-2-yl)-1,4-dihydro-1,8-naphthyridine-3-carboxylic acid]	900	
CNC1CN(c2ccc3c(=O)c(C(=O)O)cn(-c4nccs4)c3n2)CC1OC (centres unmarked) [the compound, 1,4-dihydro-7-(3-methoxy-4-methylamino-1-pyrrolidinyl)-4-oxo-1-(2-thiazolyl)-1,8-naphthyridine-3-carboxylic acid, reference compound]		does not exhibit a significant therapeutic effect

The next lines start with results.

IC50 [1] [nM]	SMILES	therapeutic effect in overall survival (primary endpoint) as compared with a placebo group [2]
260	Cc1cnc(C2CN(c3cc(C)c4c(=O)c(C(=O)O)cn(-c5ncns5)c4n3)C2)o1 [Example 489, 5-Methyl-7-[3-(5-methyl-1,3-oxazol-2-yl)azetidin-1-yl]-4-oxo-1-(1,2,4-thiadiazol-5-yl)-1,4-dihydro-1,8-naphthyridine-3-carboxylic acid]	
200	Cc1cc(N2CC(c3ccon3)C2)nc2c1c(=O)c(C(=O)O)cn2-c1ncns1 [Example 499, 5-Methyl-7-[3-(1,2-oxazol-3-yl)azetidin-1-yl]-4-oxo-1-(1,2,4-thiadiazol-5-yl)-1,4-dihydro-1,8-naphthyridine-3-carboxylic acid]	
390	CCONC1CN(c2cc(C)c3c(=O)c(C(=O)O)cn(-c4ncns4)c3n2)C1 [Example 541, 7-[3-(Ethoxyamino)azetidin-1-yl]-5-methyl-4-oxo-1-(1,2,4-thiadiazol-5-yl)-1,4-dihydro-1,8-naphthyridine-3-carboxylic acid]	
380	CNOC1CN(c2cc(C)c3c(=O)c(C(=O)O)cn(-c4ncns4)c3n2)C1 [Example 553, 5-methyl-7-{3-[(methylamino)oxy]azetidin-1-yl}-4-oxo-1-(1,2,4-thiadiazol-5-yl)-1,4-dihydro-1,8-naphthyridine-3-carboxylic acid]	
210	Cc1ccc(C(=O)NC2CN(c3cc(C)c4c(=O)c(C(=O)O)cn(-c5ncns5)c4n3)C2)nc1 [Example 584, 5-Methyl-7-[3-(5-methylpyridine-2-amido)azetidin-1-yl]-4-oxo-1-(1,2,4-thiadiazol-5-yl)-1,4-dihydro-1,8-naphthyridine-3-carboxylic acid]	
410	Cc1ccc(C(=O)NC2CN(c3nc4c(cc3F)c(=O)c(C(=O)O)cn4-c3nccs3)C2)nc1 [Example 586, 6-Fluoro-7-[3-(5-methylpyridine-2-amido)azetidin-1-yl]-4-oxo-1-(1,3-thiazol-2-yl)-1,4-dihydro-1,8-naphthyridine-3-carboxylic acid]	
